According to the OligoGym collection:
Values joined by “and” are separate entries in the source; they are usually repeats but may differ in a detail not shown here. Equal entries are not always repeated. After the bases stand the sugars from the 5' end (letter, count) and the backbone: PS all phosphorothioate, else s phosphorothioate and o phosphodiester by linkage. Methylation of C is not given here. e = 2'-O-(2-methoxyethyl) (MOE); k = constrained ethyl (cEt); d = 2'-deoxy (DNA); m = 2'-O-methyl

Target: HSD17B13
Details: ASO, HepaRG, 0.02 µM

Sequence	target mRNA inhibition
TTGATATTCTGTGGCA (sugars k3 d9 k3 e1, PS)	0%

Same assay, conditions: ASO, HepaRG, 0.078 µM

Sequence	target mRNA inhibition
TTGATATTCTGTGGCA (sugars k3 d9 k3 e1, PS)	0%

Same assay, conditions: ASO, HepaRG, 0.313 µM

Sequence	target mRNA inhibition
TTGATATTCTGTGGCA (sugars k3 d9 k3 e1, PS)	25%

Same assay, conditions: ASO, HepaRG, 1 µM

Sequence	target mRNA inhibition
TTGAACCGTATTCCCA (sugars k3 d10 k3, PS)	76%
TTGAATAGCAAGCCAA (sugars kkdddddddddkekek, PS)	27%
TTGACTAAGGAGCTAG (sugars k3 d10 k3, PS)	20%
TTGACTGCTGCTAGTG (sugars k3 d9 k3 e1, PS)	50%
TTGACTGCTGCTAGTG (sugars k3 d10 k3, PS)	30%
TTGAGATAAAGCTGCC (sugars k3 d1 m1 d8 k3, PS)	51%
TTGAGATAAAGCTGCC (sugars k3 d10 k3, PS)	49%
TTGAGCCTAAAATTGT (sugars k3 d10 k3, PS)	36%
TTGAGTAGTGTAAGCT (sugars k3 d1 m1 d8 k3, PS)	35%
TTGAGTAGTGTAAGCT (sugars k3 d10 k3, PS)	52%
TTGAGTAGTGTAAGCT (sugars kkdddddddddkekek, PS)	29%
TTGAGTTCTCCACTGC (sugars k3 d9 k3 e1, PS)	26%
TTGAGTTCTCCACTGC (sugars kkdddddddddkekek, PS)	20%
TTGATATTCTGTGGCA (sugars k3 d9 k3 e1, PS)	76%
TTGATATTCTGTGGCA (sugars kkdddddddddkekek, PS)	55%
TTGATGTAGTGGGAGT (sugars k3 d10 k3, PS)	68%
TTGAUCTCTTAGCTGT (sugars k3 d1 m1 d8 k3, PS)	50%
TTGCAAAATGTGATGC (sugars k3 d10 k3, PS)	75%
TTGCAATGAGATTACC (sugars k3 d10 k3, PS)	29%
TTGCACCGTTTTGGGC (sugars k3 d10 k3, PS)	45%

Sequence	target mRNA inhibition
TTGCAGAAATTCACCT (sugars k3 d9 k3 e1, PS)	29%
TTGCAGTTATTAGAAG (sugars k3 d10 k3, PS)	13%
TTGGAATGCTACTTGA (sugars k3 d9 k3 e1, PS)	56%
TTGGACATGAAGATTA (sugars k3 d10 k3, PS)	18%
TTGGTAAGTATTCCAT (sugars kkdddddddddkekek, PS)	13%
TTGTATTTCGCTACTG (sugars k3 d10 k3, PS)	58%
TTTAAAATAGAGTCGG (sugars k3 d1 m1 d8 k3, PS)	77%
TTTAACTACCCTCACA (sugars k3 d10 k3, PS)	0%
TTTAGTTGGTAGCTTG (sugars k3 d10 k3, PS)	63%
TTTATAACTACAAGAG (sugars k3 d10 k3, PS)	38%
TTTATGTAAGCACAGA (sugars k3 d10 k3, PS)	70%
TTTCAGATCCCGTTCT (sugars k3 d10 k3, PS)	45%
TTTCTCTCCATCATCG (sugars k3 d10 k3, PS)	27%
TTTCTTATGTAATAGC (sugars k3 d10 k3, PS)	76%
TTTCTTATTGGTAAGT (sugars k3 d10 k3, PS)	44%
TTTGGTGAACCCAGTA (sugars k3 d10 k3, PS)	34%
TTTTAATACGACTTCC (sugars k3 d10 k3, PS)	57%
TTTTATTATGAGGATC (sugars k3 d10 k3, PS)	18%
TTTTCGGCACTCAGCT (sugars k3 d10 k3, PS)	13%
TTTTGTCCACCTTTAA (sugars k3 d10 k3, PS)	68%

Same assay, conditions: ASO, HepaRG, 1.25 µM

Sequence	target mRNA inhibition
TTGATATTCTGTGGCA (sugars k3 d9 k3 e1, PS)	51%

Same assay, conditions: ASO, HepaRG, 5 µM

Sequence	target mRNA inhibition
TTGATATTCTGTGGCA (sugars k3 d9 k3 e1, PS)	55%

Target: IRF4
Details: ASO, MM.1R, 0.0625 µM

Sequence	target mRNA inhibition
AATGGATAGTTTCTCA (sugars k3 d10 k3, PS)	-2% and -14%

Same assay, conditions: ASO, MM.1R, 0.074 µM

Sequence	target mRNA inhibition
AATGGATAGTTTCTCA (sugars k3 d10 k3, PS)	11%

Same assay, conditions: ASO, MM.1R, 0.222 µM

Sequence	target mRNA inhibition
AATGGATAGTTTCTCA (sugars k3 d10 k3, PS)	8%

Same assay, conditions: ASO, MM.1R, 0.25 µM

Sequence	target mRNA inhibition
AATGGATAGTTTCTCA (sugars k3 d10 k3, PS)	6% and 5%

Same assay, conditions: ASO, MM.1R, 0.666 µM

Sequence	target mRNA inhibition
AATGGATAGTTTCTCA (sugars k3 d10 k3, PS)	23%

Same assay, conditions: ASO, MM.1R, 1 µM

Sequence	target mRNA inhibition
AAAACAGCCGCCGGCA (sugars k3 d10 k3, PS)	-9%
AAACTTGGGTCACTTA (sugars k3 d10 k3, PS)	5%
AAAGAGCTGGTAGGTC (sugars k3 d10 k3, PS)	-35%
AAATCACGAGGTTGCC (sugars k3 d10 k3, PS)	21%
AACGCAAGTCTGAATT (sugars k3 d10 k3, PS)	3%
AAGCAGTGATGTCAGG (sugars kddddddddddkekek, PS)	28% and 39%
AAGCATTTTATCATCC (sugars k3 d10 k3, PS)	25%
AAGCATTTTATCATCC (sugars kkdddddddddekeke, PS)	25%
